# Laboratory results published in patent publication US20220273011A1, “GINGEROL COMPOUNDS AND THEIR USE AS FLAVOR MODIFIERS” (Firmenich SA, priority 2019, published 2022).
# How the values were obtained:
# Type in all cases: in vivo
# [1] = test system: salty taste and/or umami taste; assay: Sensory tests in chicken bouillon; details: for taste description: 10 ppm in chicken bouillon (0.7% salt, 0.04% MSG)
# Experimental: [10]-gingerdiol and [10]-gingerdioldiacetate were tested to evaluate their ability to enhance salty taste and/or umami taste in chicken bouillon (GVA-000589, 0.7% salt, 0.04% MSG, no pepper, with 0.08% Chicken Flexarome 880449 FBS42).
# The sensory tests were evaluated for salt intensity, umami intensity, and liking intensity. The experiments were conducted in four designs, i.e. UNF (reference), Ericamide ((E)-3-(3,4-dimethoxyphenyl)-N-(4-methoxyphenethyl)acrylamide, FEMA 4877) at 10 ppm, [10]-gingerdiol at 10 ppm, and [10]-gingerdioldiacetate at 10 ppm.
# [2] = test system: salty taste and/or umami taste; assay: Sensory tests in basic beef noodle seasoning; details: 10 ppm in salt water, in comparison to 0.3% salt; FIG. 8
# Experimental: [6]-gingerdiol, [8]-gingerdiol, and [10]-gingerdioldiacetate were tested to evaluate their abilities to enhance salty taste and/or umami taste in basic beef noodle seasoning (GVA-003129, no salt, no MSG; salt (−25%) 0.525% RTC, MSG 0.25% RTC; Corned Beef 589879 CB at 0.2% RTC).
# The sensory tests were evaluated for salt intensity, umami intensity, bitter intensity and liking intensity. The experiments were conducts in four designs, i.e. salt at 0.3%, [6]-gingerdiol at 10 ppm in salt water, [8]-gingerdiol at 10 ppm in salt water, and [10]-gingerdioldiacetate at 10 ppm in salt water.
# [3] = test system: salty taste and/or umami taste; assay: Sensory tests of the compounds of formula (I) and (III) in reference solutions (NaCl, MSG, KCl), with or without nose clip; details: for enhancing effect for a salty or umami taste: references: 0.25% NaCl, 0.05% MSG, 0.25% KCl solution, FIGS. 1-6
# Experimental: Sensory tests of the compounds of the present application were conducted. The compounds of formula (I) and (III) of the present application were tasted in sensory tests for their ability to enhance salty taste and/or umami taste in food products. The sensory tests were evaluated in four characters as saltiness, umami taste, saltiness in the presence of potassium chloride, and potassium chloride taste. The food products were evaluated with or without these compounds relevant to references (as indicated “With NC-Ref”, or “Without NC-Ref” in figures). The reference for saltiness was a 0.25% NaCl solution, the reference for umami was a 0.05% MSG solution, and the salty/bitter reference was a 0.25% KCl solution. The data was analyzed for statistical significances (indicated as * in the figures), such as levels of significance or graph of differences between means.
# FIGS. 1-6 show the results of sensory tests for enhancing salty taste and/or umami taste using the compounds of formula (I) and (III) of the present application.
Compound,taste description [1],bitter intensity [2],liking intensity [2],salt intensity [2],umami intensity [2],enhancing effect for a salty or umami taste [3],enhancing salty taste and/or umami taste in food products ([3]; FIG. 4),"salt intensity ([1]; 10 ppm in chicken bouillon, vs UNF (reference), FIG. 9)"
"COc1ccc(CCNC(=O)/C=C/c2ccc(OC)c(OC)c2)cc1 [Ericamide, (E)-3-(3,4-dimethoxyphenyl)-N-(4-methoxyphenethyl)acrylamide, reference compound]","chickeny, balanced, good mouthfeel and salty tastes",,,,,,,
CCCCC[C@H](O)C[C@H](O)CCc1ccc(O)c(OC)c1 [[6]-gingerdiol],,less bitter intensities,higher liking intensities,comparable salt intensities,higher umami intensities,,,
CCCCCCC[C@H](O)C[C@H](O)CCc1ccc(O)c(OC)c1 [[8]-gingerdiol],,less bitter intensities,higher liking intensities,comparable salt intensities,higher umami intensities,enhancing effect for a salty or umami taste,,
CCCCCCC[C@@H](C[C@@H](CCc1ccc(O)c(OC)c1)OC(C)=O)OC(C)=O [[8]-gingerdioldiacetate],,,,,,enhancing effect for a salty or umami taste,unexpected and excellent results,
CCCCCCCCC[C@H](O)C[C@H](O)CCc1ccc(O)c(OC)c1 [[10]-gingerdiol],"less round, more salty, more acidic, chickeny balanced, coriander leaf, good and quite clean tastes",,,,,enhancing effect for a salty or umami taste,,unexpected effects in enhancing the salt intensity
CCCCCCCCC[C@@H](C[C@@H](CCc1ccc(O)c(OC)c1)OC(C)=O)OC(C)=O [[10]-gingerdioldiacetate],"strange, salty, solvent note, fruity, and some off tastes",less bitter intensities,higher liking intensities,higher salt intensity,higher umami intensities,enhancing effect for a salty or umami taste,,
